# Assay results taken from ChEMBL document CHEMBL3885881, “DrugMatrix”.
# Organism: Rattus norvegicus
# Assay: DrugMatrix - Regimen: Daily Repeat
# Type: toxicity, organism-based, Sprague-Dawley
# Design: regimen Daily Repeat, gender Male, age 6-8 weeks
# Conditions: in vivo, po, 5 mg/kg, route oral GAVAGE, dose level Low, vehicle .5 % CMC; for ABSOLUTE BASOPHIL / ABSOLUTE EOSINOPHIL / ABSOLUTE LYMPHOCYTE / ABSOLUTE MONOCYTE / ABSOLUTE SEGMENTED NEUTROPHIL / BASOPHIL / EOSINOPHIL / ERYTHROCYTE COUNT / HEMATOCRIT / HEMOGLOBIN / LEUKOCYTE COUNT / LYMPHOCYTE / MEAN CORPUSCULAR HEMOGLOBIN / MEAN CORPUSCULAR HEMOGLOBIN CONCENTRATION / MEAN CORPUSCULAR VOLUME / MONOCYTE / NEUTROPHIL / NUCLEATED RED BLOOD CELLS / PLATELET COUNT: tissue Blood; for ALANINE AMINOTRANSFERASE / ALBUMIN / ALKALINE PHOSPHATASE / ASPARTATE AMINOTRANSFERASE / BLOOD UREA NITROGEN / CARBON DIOXIDE / CHLORIDE / CHOLESTEROL / CREATINE PHOSPHOKINASE / CREATININE / GLUCOSE / LACTATE DEHYDROGENASE / LIPASE / PHOSPHORUS / POTASSIUM / SODIUM / TOTAL BILIRUBIN / TOTAL PROTEIN / URIC ACID: tissue Plasma
structure (smiles),measurement,setting,value
COc1cc(CNC(=O)CCCC/C=C/C(C)C)ccc1O [CAPSAICIN],ABSOLUTE BASOPHIL,"72 h, time 3 day",0 CELLS/uL
same,ABSOLUTE EOSINOPHIL,"72 h, time 3 day",231.67 CELLS/uL
same,ABSOLUTE LYMPHOCYTE,"72 h, time 3 day",12823.67 CELLS/uL
same,ABSOLUTE MONOCYTE,"72 h, time 3 day",176.33 CELLS/uL
same,ABSOLUTE SEGMENTED NEUTROPHIL,"72 h, time 3 day",735 CELLS/uL
same,BASOPHIL,"72 h, time 3 day",0%
same,EOSINOPHIL,"72 h, time 3 day",1.33%
same,ERYTHROCYTE COUNT,"72 h, time 3 day",5.55 x10E6/uL
same,HEMATOCRIT,"72 h, time 3 day",34.43%
same,HEMOGLOBIN,"72 h, time 3 day",12.97 G/DL
same,LEUKOCYTE COUNT,"72 h, time 3 day",13.97 x10E3/uL
same,LYMPHOCYTE,"72 h, time 3 day",92%
same,MEAN CORPUSCULAR HEMOGLOBIN,"72 h, time 3 day",23.37 pg
same,MEAN CORPUSCULAR HEMOGLOBIN CONCENTRATION,"72 h, time 3 day",37.63 G/DL
same,MEAN CORPUSCULAR VOLUME,"72 h, time 3 day",62.03 fL
same,MONOCYTE,"72 h, time 3 day",1.33%
same,NEUTROPHIL,"72 h, time 3 day",5.33%
same,NUCLEATED RED BLOOD CELLS,"72 h, time 3 day",0 /100WBC
same,PLATELET COUNT,"72 h, time 3 day",1334 x10E3/uL
same,ALANINE AMINOTRANSFERASE,"72 h, time 3 day",40.33 u/L
same,ALBUMIN,"72 h, time 3 day",4.27 G/DL
same,ALKALINE PHOSPHATASE,"72 h, time 3 day",433 u/L
same,ASPARTATE AMINOTRANSFERASE,"72 h, time 3 day",75.33 u/L
same,BLOOD UREA NITROGEN,"72 h, time 3 day",15 mg/dL
same,CARBON DIOXIDE,"72 h, time 3 day",25.33 mmol/L
same,CHLORIDE,"72 h, time 3 day",104.67 MEQ/L
same,CHOLESTEROL,"72 h, time 3 day",57 mg/dL
same,CREATINE PHOSPHOKINASE,"72 h, time 3 day",554.67 u/L
same,CREATININE,"72 h, time 3 day",0.17 mg/dL
same,GLUCOSE,"72 h, time 3 day",177.67 mg/dL
same,LACTATE DEHYDROGENASE,"72 h, time 3 day",121 u/L
same,LIPASE,"72 h, time 3 day",8 u/L
same,PHOSPHORUS,"72 h, time 3 day",12.47 mg/dL
same,POTASSIUM,"72 h, time 3 day",6.02 MEQ/L
same,SODIUM,"72 h, time 3 day",145.37 MEQ/L
same,TOTAL BILIRUBIN,"72 h, time 3 day",0.23 mg/dL
same,TOTAL PROTEIN,"72 h, time 3 day",5.9 G/DL
same,URIC ACID,"72 h, time 3 day",1.5 mg/dL
same,ABSOLUTE BASOPHIL,"120 h, time 5 day",0 CELLS/uL
same,ABSOLUTE EOSINOPHIL,"120 h, time 5 day",118.67 CELLS/uL
same,ABSOLUTE LYMPHOCYTE,"120 h, time 5 day",14371.67 CELLS/uL
same,ABSOLUTE MONOCYTE,"120 h, time 5 day",374.33 CELLS/uL
same,ABSOLUTE SEGMENTED NEUTROPHIL,"120 h, time 5 day",1135.33 CELLS/uL
same,BASOPHIL,"120 h, time 5 day",0%
same,EOSINOPHIL,"120 h, time 5 day",0.67%
same,ERYTHROCYTE COUNT,"120 h, time 5 day",5.31 x10E6/uL
same,HEMATOCRIT,"120 h, time 5 day",33.03%
same,HEMOGLOBIN,"120 h, time 5 day",12.53 G/DL
same,LEUKOCYTE COUNT,"120 h, time 5 day",16 x10E3/uL
same,LYMPHOCYTE,"120 h, time 5 day",89.67%
same,MEAN CORPUSCULAR HEMOGLOBIN,"120 h, time 5 day",23.6 pg
same,MEAN CORPUSCULAR HEMOGLOBIN CONCENTRATION,"120 h, time 5 day",37.93 G/DL
same,MEAN CORPUSCULAR VOLUME,"120 h, time 5 day",62.17 fL
same,MONOCYTE,"120 h, time 5 day",2.33%
same,NEUTROPHIL,"120 h, time 5 day",7.33%
same,NUCLEATED RED BLOOD CELLS,"120 h, time 5 day",0 /100WBC
same,PLATELET COUNT,"120 h, time 5 day",1256.67 x10E3/uL
same,ALANINE AMINOTRANSFERASE,"120 h, time 5 day",50 u/L
same,ALBUMIN,"120 h, time 5 day",4.1 G/DL
same,ALKALINE PHOSPHATASE,"120 h, time 5 day",314 u/L
same,ASPARTATE AMINOTRANSFERASE,"120 h, time 5 day",93.67 u/L
same,BLOOD UREA NITROGEN,"120 h, time 5 day",18.33 mg/dL
same,CARBON DIOXIDE,"120 h, time 5 day",24.33 mmol/L
same,CHLORIDE,"120 h, time 5 day",107.67 MEQ/L
same,CHOLESTEROL,"120 h, time 5 day",68 mg/dL
same,CREATINE PHOSPHOKINASE,"120 h, time 5 day",629.33 u/L
same,CREATININE,"120 h, time 5 day",0.21 mg/dL
same,GLUCOSE,"120 h, time 5 day",153 mg/dL
same,LACTATE DEHYDROGENASE,"120 h, time 5 day",471.33 u/L
same,LIPASE,"120 h, time 5 day",8.33 u/L
same,PHOSPHORUS,"120 h, time 5 day",12.63 mg/dL
same,POTASSIUM,"120 h, time 5 day",5.84 MEQ/L
same,SODIUM,"120 h, time 5 day",145.1 MEQ/L
same,TOTAL BILIRUBIN,"120 h, time 5 day",0.2 mg/dL
same,TOTAL PROTEIN,"120 h, time 5 day",6.2 G/DL
same,URIC ACID,"120 h, time 5 day",1.73 mg/dL
